# Experiments:
# Pseudomonas fluorescens = test: Synergism BIT/TMAD, amounts required to suppress growth; assay type: cell-based; conditions: compound applied on its own
# From the text: (§1) The observed synergism of the mixtures according to the invention can be determined by the following mathematical approach (cf. F. C. Kull, P. C. Elisman, H. D. Sylwestrowicz and P. K. Mayer, Appl. Microbiol. 9, 538 (1961): [formula] where • Qa=the amount of component A in the active compound mixture required to achieve the desired effect, i.e. no microbial growth, • QA=the amount of component A which, applied on its own, suppresses the growth of the microorganisms, • Qb=the amount of component B in the active compound mixture which supresses the growth of the microorganisms, and • QB=the amount of component B which, applied on its own, suppresses the growth of the microorganisms.
# (§2) A synergistic index of SI<1 indicates a synergistic effect for the active compound mixture.
# Test germ: Pseudomonas fluorescens
# (§3) The numbers in brackets indicate the weight ratio of the active compounds in the mixtures. [formula] A=BIT/B=TMAD
# Pseudomonas aeruginosa = test: as above; assay type: cell-based; conditions: compound applied on its own
# From the text: as §1, §2
# Test germ: Pseudomonas aeruginosa
# as §3
SMILES,Amounts of the pure active compounds required to suppress growth (Pseudomonas fluorescens),Amounts of the pure active compounds required to suppress growth (Pseudomonas aeruginosa)
"O=c1[nH]sc2ccccc12 [BIT, 1,2-benzisothiazolinone]",20 ppm,20 ppm
"O=C1N(CO)C2C(N1CO)N(CO)C(=O)N2CO (stereo not shown) [TMAD, tetramethylolacetylenediurea]",500 ppm,500 ppm

# — patent publication US20060111410A1, “Microbicide substances” (priority 2002, published 2006)
